From patent US20050013875A1, “Immunopotentiators in thermotherapy for cancer” (priority 2001, published 2005)

How the values were obtained:
MFH cells = assay: Tumor regression in MFH cancer-carried F344 rats under MCL hyperthermia (tumor tissue volume); format: in vivo, rat; conditions: (GGA+AMF) Group: hyperthermia using MCL and GGA in combination, magnetic field irradiation three times, among 8 individuals
Experimental: (§1) As experimental individuals, F344 rats (female, 7 to 8-weeks old) were used. MFH cells 1×10^7 cultured on Petri dish for cell-cultivation were dispersed in about 50 μl of a physiologically buffered saline, and then, the cells suspension was transplanted subcutaneously to a right leg of an experimental individual by using a scalp vein needle (25G×5/8″) (Terumo Corporation) to make a cancer-carried experimental individual. Nembutal (available from Dainippon Pharmaceutical Co., Ltd.) was used for anesthesia, and that diluted to five times (50 mg/kg body weight) was administered to abdominal cavity.
A slurry of the magnetite (particle diameter 10 nm; available from Toda Kogyo Corporation) was sufficiently washed with a distilled water to remove unnecessary ion components, subjected to ultrasonic wave treatment, to obtain colloidal magnetite. […]
Under anesthesia of experimental individuals, a longer diameter and a shorter diameter of the tumor tissue were measured by using calipers and calculated out from the following formula. […]

HSP70 [1] = assay: In vitro HSP70 expression in heated MFH cells (immunoassay kit, Western Blot); format: cell-based; conditions: GGA 10^-5 M or 10^-4 M, 45° C. for 15 minutes, measured 6 hours after heating
Experimental: Cultivation of MFH cells was carried out by using a 100 mm Petri dish for culturing cells into which 10 ml of a medium had been charged, at 37° C. for 24 hours in an incubator into which 5% of carbon dioxide was added. As the medium, a medium comprising Dulbecco's modified Eagle's Medium that contains 10% fetal bovine serum and, as antibiotics, penicillin G potassium (100 U/ml) and streptomycin sulfate ([…]) was used.
After 6 hours from completion of the heating, a culture broth was removed from the Petri dish for culturing, the cells were washed twice with a physiological saline, a liquid to dissolve the cells attached to a HSP70 immunoassay kit was added to the cells with a predetermined amount to extract HSP70 from the cells. This was quantitated by the immunoassay kit. Also, the cells extract was subjected to electrophoresis, and an amount of HSP70 was qualitatively examined by Western Blot.

HSP70 [2] = assay: HSP70 immunostain of tumor tissue after GGA administration; format: in vivo; conditions: F344 rat MFH tumor, GGA locally injected 12 hours after MCL, tumor cut out 2 hours after GGA, FIG. 1
Experimental: as §1
Under anesthesia of a rat, MCL with a concentration of 7.5 mg/ml and 3.3 mg of net weight magnetite was administered to the tumor tissue of the rat 10 days after transplantation of the MFH cells over 30 minutes by using a microsyringe pump (SP100i syringe pump, manufactured by WPI Co.), and thereafter, the rat was allowed to stand for 30 minutes. Magnetic field irradiation was carried out after 24 hours from injection of the MCL.

Question: With geranylgeranyl acetone [GGA] as the substance, how does the “individuals whose tumors were completely regressed and cured” value (MFH cells) read?
Answer: 8 individuals

Question: What about the “expressed amount of the HSP70 after applying thermal stress” value (HSP70 [1]) of the same substance?
Answer: increased depending on an amount of the GGA added

Question: What about the “induction of HSP70 in tumor tissue (HSP70 stain)” value (HSP70 [2]) of the same substance?
Answer: induction of HSP70 was confirmed
